# Results from patent publication US20100331233A1, “CRYSTAL OF XPA AND ERCC1 COMPLEX AND USES THEREOF” (priority 2007, published 2010).
# No end group written: not given here.
# Target: T1, ERCC1-XPF (Homo sapiens, UniProt P07992)
# T1 sequence (P07992 1-297): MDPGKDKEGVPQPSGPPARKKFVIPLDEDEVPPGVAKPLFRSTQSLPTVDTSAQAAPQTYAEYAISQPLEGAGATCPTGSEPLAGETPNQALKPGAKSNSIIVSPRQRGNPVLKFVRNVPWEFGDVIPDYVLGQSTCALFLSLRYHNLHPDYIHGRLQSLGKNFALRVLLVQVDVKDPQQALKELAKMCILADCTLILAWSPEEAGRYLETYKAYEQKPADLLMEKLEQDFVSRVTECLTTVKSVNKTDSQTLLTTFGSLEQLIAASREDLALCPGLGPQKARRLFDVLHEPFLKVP
# T1 sequence (Q92889 1-916 partner): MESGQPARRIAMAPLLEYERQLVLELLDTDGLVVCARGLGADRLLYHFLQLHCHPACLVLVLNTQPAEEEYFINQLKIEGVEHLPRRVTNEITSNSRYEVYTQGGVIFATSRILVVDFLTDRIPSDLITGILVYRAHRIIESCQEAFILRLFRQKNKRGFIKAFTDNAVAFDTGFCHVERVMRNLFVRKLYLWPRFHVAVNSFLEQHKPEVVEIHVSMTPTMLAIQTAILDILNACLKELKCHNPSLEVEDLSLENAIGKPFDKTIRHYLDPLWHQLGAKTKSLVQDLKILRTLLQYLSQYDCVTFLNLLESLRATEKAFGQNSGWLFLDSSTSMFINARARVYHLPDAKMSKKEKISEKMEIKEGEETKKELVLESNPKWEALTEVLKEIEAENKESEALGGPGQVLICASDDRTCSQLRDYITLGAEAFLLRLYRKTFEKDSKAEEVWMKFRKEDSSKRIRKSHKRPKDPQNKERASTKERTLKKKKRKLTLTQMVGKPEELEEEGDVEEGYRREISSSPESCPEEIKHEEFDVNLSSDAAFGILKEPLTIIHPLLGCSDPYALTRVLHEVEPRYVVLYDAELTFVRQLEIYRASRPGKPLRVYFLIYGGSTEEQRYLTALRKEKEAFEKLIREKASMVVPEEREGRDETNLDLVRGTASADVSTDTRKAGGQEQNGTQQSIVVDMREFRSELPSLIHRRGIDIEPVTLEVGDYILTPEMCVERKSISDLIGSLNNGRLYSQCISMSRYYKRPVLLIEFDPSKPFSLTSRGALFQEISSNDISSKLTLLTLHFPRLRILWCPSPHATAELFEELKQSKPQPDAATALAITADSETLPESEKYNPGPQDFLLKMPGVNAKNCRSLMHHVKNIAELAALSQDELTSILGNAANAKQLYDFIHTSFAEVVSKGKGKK
# Assay: Nuclease assay: incision of stem-loop DNA substrate by purified ERCC1-XPF
# Type: biochemical
# Details: 92 μM peptide
# Experimental: Nuclease assay. A substrate consisting of a 12 base pair stem with a 22 nucleotide loop (5′-[…](T)22[…]; SEQ ID NO:7) was 5′ end labeled using a T4 polynucleotide kinase and [γ-^32P]-ATP. […] The final reaction volume was 15 μl.
sequence,measurement,setting,value
KIIDTGGGFILEEE [XPA67-80],effect on intrinsic nuclease activity of ERCC1-XPF,0.4 mM MnCl2,do not affect
same,effect on intrinsic nuclease activity of ERCC1-XPF,"0.4 mM MnCl2, listed as XPA peptide",has no effect
